Experiments:
MFE 280 = test: IC50 in endometrial cancer cell lines (untitled table); format: cell-based; settings: Homo sapiens, PIK3CA^G1047Y, RB^del, FGFR2^5252W, Type II
endometrial cancer = test: Phase I study, clinical outcomes in endometrial cancer patients; format: in vivo, human
Experimental: (§1) In a phase I dose escalation study, subjects were treated with Compound A (copanlisib) administered intravenously over 60 minutes on days 1, 8, and 15 of every 28 day cycle. Seventeen subjects were treated in 5 dose escalation cohorts (0.1, 0.2, 0.4, 0.8, and 1.2 mg/kg), and the maximum tolerated dose (MTD) was determined to be 0.8 mg/kg. Additional patients were enrolled into the study in 3 expansion cohorts treated at the MTD to assess safety, pharmacokinetics, biomarkers, and clinical benefit in selected patient populations, including solid tumors (n=25), non-Hodgkin lymphoma (NHL; n=9), and diabetic solid tumor patients (n=6; treated at 0.4 mg/kg).
PIK3CA, BRAF, and KRAS mutations were tested using digital PCR on archival tumor samples and cell free DNA isolated from plasma. Next generation sequencing (NGS) of a panel of tumor genes and immunohistochemistry (IHC) for PTEN protein were also performed on archival tumor samples. […] Of the 2 endometrial cancer patients with extended SD lasting more than 8 cycles, PTEN data could only be generated for 1 (patient #2117), and this tumor was also PTEN-negative by IHC (Table 4). The other endometrial cancer patient with extended SD (with 24.3% tumor shrinkage) harbored a KRAS tumor mutation (Table 4). […] Activation of PI3K pathway signaling via a number of mechanisms alone or in combination, such as PTEN loss and/or mutation, PIK3CA mutation, and/or KRAS mutation, may enrich Compound A (copanlisib) activity in this population.

RUCA = test: IC50 in endometrial cancer cell lines (untitled table); format: cell-based; settings: PTEN^del, ER+, Type I
HEC-1A = test: as above; format: cell-based; settings: Homo sapiens, PIK3CA^G1049R, PIK3R2^mut, KRAS^mut, Type II
AN3CA = test: as above; format: cell-based; settings: Homo sapiens, AN3-CA, PTEN^del, FBXW7, FGFR2^N549K, K310R, Type II
Ishikawa = test: as above; format: cell-based; settings: Homo sapiens, PTEN^del, PIK3R1^mut, ER+, PR+, Type I
MFE-296 cells = test: 48-hour caspase 3/7 activation assay (apoptosis induction); format: cell-based; settings: single agent
Experimental: (§2) In vitro combination assessment: The effects of combinations of the present invention were evaluated using combination index isobologram analysis for in vitro assessment. The efficacy parameters were the effects in a 48-hour caspase 3/7 activation assay. Briefly, cells were plated in 384-well plate with 25 μL medium. After 24 hours, 5 μL of experimental media containing: • either A alone, or • B alone, or • the combination of A (as component A) plus either B, (as component B), at different ratios (***) were used to make serial 3-fold dilutions to generate response curves with 7 concentrations. Experiments were conducted in triplicates. Caspase 3/7 assay was conducted at 48 hours after compound exposure.
FIG. 2: Synergistic combination of PI3K inhibitor compound A (Copanlisib) with FGFR inhibitor compound B in MFE-296 cells (PTEN^del, FGFR2^N549K). The combination of PI3K inhibitor compound A (copanlisib) and FGFR inhibitor compound B was tested and compared to the single agent activity in MFE 296 to address the activity in apoptosis induction using a cleaved caspase 3/7 assay. MFE 296 cells are bearing activating FGFR2 mutation and loss-of-PTEN.

HEC-1B = test: IC50 in endometrial cancer cell lines (untitled table); format: cell-based; settings: Homo sapiens, PIK3CA^mut, PIK3R2^mut, PTEN^Loss(protein) and KRAS^mut, Type II
[1] = Phase I dose escalation study, maximum tolerated dose; settings: human, in vivo, iv; intravenously over 60 minutes on days 1, 8, 15 of every 28 day cycle
Experimental: as §1

MFE 296 = test: IC50 in endometrial cancer cell lines (untitled table); format: cell-based; settings: Homo sapiens, PTEN^del, FGFR2^N549K, UTX^del, Type II
[2] = test system: MFE 280 xenograft tumor model; test: In vivo efficacy in tumor xenograft model; design: species or system nude mice; settings: for T/C (tumor area) / T/C (tumor weight): study end
Experimental: (§3) The in vivo efficacy was evaluated in tumor xenograft models in nude mice with established human tumor cell lines at the MTD and sub-MTD dosages. Tumor cells were cultivated according to ATCC protocols in recommended media contained 10% FCS. Cells were harvested for transplantation in a subconfluent (70%) state. The volume of implantation was 100 μl for mice. When the tumors were approximately in size of 25-50 mm^2, the animals were randomized to treatment and control groups and treatment was started. Treatment of each animal was based on individual body weight. The optimal formulation, application route and schedule were used for each compound (see table 2). Oral administration (p.o.) was carried out via a gastric tube. The oral application volumes were 10 ml/kg and the intravenous application volumes were 10 ml/kg. Tumor area (product of the longest diameter and its perpendicular) using a caliper. The animal body weight was monitored as a measure for treatment-related toxicity. Measurement of tumor area and body weight was performed 2-3 times weekly. T/C ratios (Treatment/Control) were calculated with final tumor areas. Treatment responses were evaluated by means of the clinically-used RECIST criteria (complete response, partial response, stable disease and progressive disease) and response rates were calculated accordingly (RR=number of animals with complete and partial response).
FIGS. 3A and 3B: Synergistic combination of PI3K inhibitor compound A (Copanlisib) with FGFR inhibitor compound B in MFE-280 xenograft tumor model. The combination of PI3K inhibitor compound A (copanlisib) and FGFR inhibitor compound B was tested and compared to the single agent activity and the SoC doxorubicin in MFE 280, an endometrial tumor model bearing both activating PIK3CA and FGFR2 mutations. At a tumor size of about 40 mm^2 the subcutaneously growing MFE-280 tumors were treated intravenously with two different doses of compound A (copanlisib), 14 (filled triangles)/10 (open triangles) mg/kg, and 7 mg/kg) and in combination of compound A and compound B. The dosing schedule for compound A is depicted in FIG. 3A with triangles. […] Doxorubicin was applied intravenously 1 time every 14 days as a SoC reference.

RL95-2 = test: IC50 in endometrial cancer cell lines (untitled table); format: cell-based; settings: Homo sapiens, PIK3R1^mut/PTEN^del/NF2/BRCA2, Type II
KLE = test: as above; format: cell-based; settings: Homo sapiens, FBXW7^mut, Type II
HEC-50 = test: as above; format: cell-based; settings: Hec50, PIK3R1^mut, KRAS^mut, Type II
ECC-1 = test: as above; format: cell-based; settings: Homo sapiens, PTEN^del, PIK3R1^mut, ER+, PR+, Type I
MFE-280 cells = test: 48-hour caspase 3/7 activation assay (apoptosis induction); format: cell-based; settings: single agent
Experimental: as §2
FIG. 1: Synergistic combination of PI3K inhibitor compound A (Copanlisib) with FGFR inhibitor compound B in MFE-280 cells (PIK3CA^G1047Y, FGFR2^S252W). The combination of PI3K inhibitor compound A (copanlisib) and FGFR inhibitor compound B was tested and compared to the single agent activity in MFE 280 to address the activity in apoptosis induction using a cleaved caspase 3/7 assay. MFE 280 cells are bearing both activating PIK3CA and FGFR2 mutations.

[3] = Body weight as a measure for treatment-related toxicity in MFE-280 xenograft study; settings: mouse, in vivo, 7 mg/kg
Experimental: as §3, with “response). […]” for “response).”

[4] = Pt 2004, 0.4 mg/kg (40 mg), stage IV
[5] = Pt 2116, 0.8 mg/kg (59 mg), stage IV
[6] = Pt 2117, 0.8 mg/kg (51 mg), stage IIIC
[7] = Compound A (14)10 mg/kg i.v. Q2D
[8] = Doxorubicin Q14D (SoC reference)

COc1c(OCCCN2CCOCC2)ccc2c1N=C(NC(=O)c1cnc(N)nc1)N1CCN=C21 [Compound A, 2-amino-N-[7-methoxy-8-(3-morpholin-4-ylpropoxy)-2,3-dihydroimidazo[1,2-c]quinazolin-5-yl]pyrimidine-5-carboxamide]
IC50 (MFE 280): < 6.86 nM | clinical benefit (patients with CR, PR or SD) (endometrial cancer; 4 of 5 endometrial cancer patients): 80% | Best % change in tumor size from screening (endometrial cancer; [4]): −24.3% | Best response (endometrial cancer; [4]): SD 8 cycles | Best % change in tumor size from screening (endometrial cancer; Pt 2008, 0.8 mg/kg (40 mg), stage IV): 2.4% | Best % change in tumor size from screening (endometrial cancer; [5]): −8.7% | Best response (endometrial cancer; [5]): SD 2 cycles | Best % change in tumor size from screening (endometrial cancer; [6]): −9.1% | Best response (endometrial cancer; [6]): SD 8 cycles | Best % change in tumor size from screening (endometrial cancer; Pt 3106, 0.8 mg/kg (46 mg, then 37 mg), stage IV): −61.8% | tumor shrinkage (endometrial cancer; endometrial cancer patient with extended SD and KRAS tumor mutation): 24.3% | IC50 (RUCA): 13.7 nM | IC50 (HEC-1A): < 6.86 nM | IC50 (AN3CA): < 6.86 nM | IC50 (Ishikawa): 373 nM | concentration up to which no apoptosis induction was shown (cleaved caspase 3/7) (MFE-296 cells): > 5 µM | IC50 (HEC-1B): < 6.86 nM | MTD [1]: 0.8 mg/kg | IC50 (MFE 296): < 6.86 nM | CR (complete response) ([2]; Compound A 7 mg/kg i.v. Q2D): 0% | PD (progressive disease) ([2]; Compound A 7 mg/kg i.v. Q2D): 25% | PR (partial response) ([2]; Compound A 7 mg/kg i.v. Q2D): 25% | RR (response rate) ([2]; Compound A 7 mg/kg i.v. Q2D): 25% | T/C (tumor area) ([2]; Compound A 7 mg/kg i.v. Q2D): 0.40 | T/C (tumor weight) ([2]; Compound A 7 mg/kg i.v. Q2D): 0.24 | CR (complete response) [2, 7]: 0% | PD (progressive disease) [2, 7]: 0% | PR (partial response) [2, 7]: 37.5% | RR (response rate) [2, 7]: 37.5% | T/C (tumor area) [2, 7]: 0.34 | T/C (tumor weight) [2, 7]: 0.16 | reduction of tumor weight ([2]; compound A 7 mg/kg): ~76% | reduction of tumor weight ([2]; compound A (14)10 mg/kg): approximately 84% | IC50 (RL95-2): 144 nM | IC50 (KLE): < 6.86 nM | IC50 (HEC-50): 64.6 nM | IC50 (ECC-1): 161 nM | concentration up to which no apoptosis induction was shown (cleaved caspase 3/7) (MFE-280 cells): > 5 µM | body weight loss compared to starting body weight [3]: No body weight loss

COCc1c(-c2cc3cc(C)cc(OC)c3s2)c2c(N)ncnn2c1CN1CCNC(=O)C1 [Compound B, 4-{[4-Amino-6-(methoxymethyl)-5-(7-methoxy-5-methyl-1-benzothiophen-2-yl)pyrrolo[2,1-f][1,2,4]triazin-7-yl]methyl}piperazin-2-one]
concentration up to which no apoptosis induction was shown (cleaved caspase 3/7) (MFE-296 cells): > 10 µM | CR (complete response) ([2]; Compound B 75 mg/kg p.o. QD): 12.5% | PD (progressive disease) ([2]; Compound B 75 mg/kg p.o. QD): 12.5% | PR (partial response) ([2]; Compound B 75 mg/kg p.o. QD): 0% | RR (response rate) ([2]; Compound B 75 mg/kg p.o. QD): 12.5% | T/C (tumor area) ([2]; Compound B 75 mg/kg p.o. QD): 0.39 | T/C (tumor weight) ([2]; Compound B 75 mg/kg p.o. QD): 0.22 | tumor growth inhibition ([2]; compound B, at the end of the study): 78% | concentration up to which no apoptosis induction was shown (cleaved caspase 3/7) (MFE-280 cells): > 10 µM

COc1cccc2c1C(=O)c1c(O)c3c(c(O)c1C2=O)C[C@@](O)(C(=O)CO)C[C@@H]3O[C@H]1C[C@H](N)[C@H](O)[C@H](C)O1 [Doxorubicin, reference compound]
CR (complete response) [2, 8]: 0% | PD (progressive disease) [2, 8]: 37.5% | PR (partial response) [2, 8]: 12.5% | RR (response rate) [2, 8]: 12.5% | T/C (tumor area) [2, 8]: 0.51 | T/C (tumor weight) [2, 8]: 0.39 | tumor growth inhibition assessed by tumor weight ([2]; SoC Doxorubicin): 61%

Reference: patent US10406162B2, “Substituted 2,3-dihydroimidazo[1,2-C]quinazoline-containing combinations” (BAYER PHARMA AKTIENGESELLSCHAFT, priority 2015, dated 2019)
